Assay results: publication PMC12239475, “Bioprocessing and characterization of thermostable phytase from Aspergillus terreus, an endophyte of Catharanthus roseus, with a potential activity to hydrolyze phytic acid in wheat bran” (BMC Biotechnology, 2025)

Test system: T1, phytase from A. terreus
T1 construct: gene phyA; native, secreted; purified from solid-state culture on wheat bran (acetone, Sephadex G100, Sepharose 4B); 85 kDa subunit by SDS-PAGE
Assay: released inorganic phosphate, ammonium molybdate colorimetry at […] nm
Type: biochemical, Aspergillus terreus
Conditions: standard assay: potassium phosphate buffer pH 7.4, 40 °C, 15 min, table title misprinted as A. flavus GST

`O=P(O)(O)OC[C@H]1OC(O)(COP(=O)(O)O)[C@@H](O)[C@@H]1O` (stereo partly drawn) [Fructose 1,6-diphosphate] and `Nc1ncnc2c1ncn2[C@@H]1O[C@H](COP(=O)(O)OP(=O)(O)OP(=O)(O)O)[C@@H](O)[C@H]1O` [ATP] are within 1.5-fold of each other in Km: 280 µM for the first, 190 µM for the second.

`O=P(O)(O)O[C@H]1[C@H](OP(=O)(O)O)[C@@H](OP(=O)(O)O)[C@H](OP(=O)(O)O)[C@@H](OP(=O)(O)O)[C@H]1OP(=O)(O)O` [Phytic acid] was tested, and the Km was 25 µM.
